Tests used:
[1] = tested on: Salmonella typhi, ATCC # 6539; assay: Bactericidal efficacy vs. chlorine standard (available chlorine equivalence); assay type: cell-based; design: key to Growth in Test Tube 8 / Growth in Test Tube 9 / Growth in Test Tube 10 / Growth in Test Tube 1 / Growth in Test Tube 2 / Growth in Test Tube 3 / Growth in Test Tube 4 / Growth in Test Tube 5 / Growth in Test Tube 6 / Growth in Test Tube 7: (+) = growth; (−) = no growth; settings: S. typhi
Experimental: (§1) Example 2 compared the bactericidal efficacy of the thickened quaternary ammonium compound sanitizer composition (Formula 7) to that of a known concentration of chlorine. […] The mix order for Formula 7 is as follows: (1) water; (2) propylene glycol; (3) LonzaGuard; (4) FD&C Red #40; (5) Methocel; (6) Triethanolamine; and (7) Ethanol. Formula 7 and the chlorine standard were tested against Staphylococcus aureus, ATCC # 6538 and Salmonella typhi, ATCC # 6539. The chlorine standard was prepared by adding 0.1 ml of a 5% NaOCl stock solution (refrigerated Clorox® bleach) to 100 ml of sterile phosphate buffer solution to create a 50–55 ppm available chlorine concentration.
(§2) For the chlorine standard test, 0.05 ml of the test culture was added to a test tube with 50 ppm available chlorine. The test tube was placed in a 20° C. water bath. After 1 minute, the solution was transferred to test tube 1 with 10 ml of Fluid Thioglycollate medium (commercially available from Becton Dickinson (Sparks, Md.)). These steps were repeated for nine test tubes.
(§3) For Formula 7, the same series of test tubes used for the available chlorine test was used to test the quaternary ammonium compound sanitizer composition. 0.05 ml of test culture was added to Formula 7. The test tube was placed in a 20° C. water bath. After 1 minute, the solution was transferred to a test tube with 10 ml of Letheen broth in place of the Fluid Thioglycollate medium.
(§4) The formulas in Table 4 were tested with Staphylococcus aureus, ATCC # 6538 and Salmonella typhi, ATCC # 6539. […] A “+” sign means that the test tube had bacteria growth.
(§5) Equivalency is met when the sample tubes have an absence of growth in as many tubes as the chlorine standard.

[2] = tested on: Staphylococcus aureus, ATCC # 6538; assay: as above; assay type: cell-based; design: key to Growth in Test Tube 8 / Growth in Test Tube 9 / Growth in Test Tube 10 / Growth in Test Tube 1 / Growth in Test Tube 2 / Growth in Test Tube 3 / Growth in Test Tube 4 / Growth in Test Tube 5 / Growth in Test Tube 6 / Growth in Test Tube 7: (+) = growth; (−) = no growth; settings: S. aureus
Experimental: as §1, §2, §3, §4, §5

[3] = text does not separate the organisms

[Na+].[O-]Cl [NaOCl]
growth in tubes 3–10: Growth in tubes 1–10 [1, 3] | Growth in tubes 1–10 [2, 3]
−: Growth in Test Tube 1 ([1]; 1 minute, 20° C.) | Growth in Test Tube 2 ([1]; 1 minute, 20° C.) | Growth in Test Tube 1 ([2]; 1 minute, 20° C.) | Growth in Test Tube 2 ([2]; 1 minute, 20° C.)
+: Growth in Test Tube 3 ([1]; 1 minute, 20° C.) | Growth in Test Tube 4 ([1]; 1 minute, 20° C.) | Growth in Test Tube 5 ([1]; 1 minute, 20° C.) | Growth in Test Tube 6 ([1]; 1 minute, 20° C.) | Growth in Test Tube 7 ([1]; 1 minute, 20° C.) | Growth in Test Tube 8 ([1]; 1 minute, 20° C.) | Growth in Test Tube 9 ([1]; 1 minute, 20° C.) | Growth in Test Tube 10 ([1]; 1 minute, 20° C.) | Growth in Test Tube 3 ([2]; 1 minute, 20° C.) | Growth in Test Tube 4 ([2]; 1 minute, 20° C.) | Growth in Test Tube 5 ([2]; 1 minute, 20° C.) | Growth in Test Tube 6 ([2]; 1 minute, 20° C.) | Growth in Test Tube 7 ([2]; 1 minute, 20° C.) | Growth in Test Tube 8 ([2]; 1 minute, 20° C.) | Growth in Test Tube 9 ([2]; 1 minute, 20° C.) | Growth in Test Tube 10 ([2]; 1 minute, 20° C.)
